# Test results as given in article PMC3664642, “A Peptide against Soluble Guanylyl Cyclase α1: A New Approach to Treating Prostate Cancer” (PLoS ONE, 2013).
# Entries after “also recorded” stand apart in the source; their conditions may differ. Where no end group is shown, it is not given here.
# Experiments:
# sGCα1-sGCβ1 = sGCα1-sGCβ1 co-immunoprecipitation, LNCaP extracts; format: binding; conditions: LNCaP whole-cell extracts; Fig. S1A
# Experimental: Immunoprecipitation (IP) in LNCaP cells was performed as described previously. Whole-cell extracts from LNCaP cells were subjected to IP using Protein A/G plus Agarose (Santa Cruz). IP antibodies were against sGCα1 (Cayman Chemical), sGCβ1 (Cayman Chemical), or rabbit IgG (Santa Cruz) as control. For Biotin pulldown, 5 µg Biotin-labeled Peptide A was incubated with NeutrAvidin Agarose Resin (Thermo Scientific) for 3 hours at 4°C, after which whole-cell extract from LNCaP cells was added and incubated overnight at 4°C. Resin was washed and eluted with SDS Sample buffer, followed by SDS-PAGE gel electrophoresis.
# (A) Whole-cell extracts from LNCaP cells treated with Vehicle, Peptide A-8R, or C-8R were subjected to IP using an anti-sGCα1 or anti-sGCβ1 antibody and then probed by Western blotting for sGCα1 (Upper) or sGCβ1 (Lower). Input represents amount of sGCα1 or sGCβ1 found in extracts. (B) LNCaP cells grown in the absence or presence of 1 nM R1881 were treated with Vehicle, 20 µM Peptide A-8R, 20 µM C-8R, or 8-Br-cGMP and monitored for cGMP levels using the cGMP E1A kit (Enzo Life Sciences). (C) LNCaP cells grown in the absence or presence of 8-Br-cGMP were treated with Vehicle, Peptide A-8R, or ODQ and monitored for cell density using the MTT assay. (D) LNCaP cells were treated with Vehicle or different concentrations of Peptide A-8R and C-PTIO and monitored for cell density. […]
# LNCaP cells = assay: Proliferation/cytotoxicity, LNCaP cells (MTT); format: cell-based; conditions: different concentrations, averages of three independent experiments
# Experimental: LNCaP, C81, PC-3 and Cos cells were grown as previously described. CWR-22Rv1 cells were cultured in RMPI-1640 medium with 10% FBS and 50 µg/ml Gentamicin (Gibco). Control siRNA, sGCα1 siRNA and AKT siRNA (Dharmacon) at 50 nM final concentration was transfected into cells using Lipofectamine siMAX (Invitrogen).
# For proliferation, cells were grown in medium containing 2% FBS extracted with dextran-coated charcoal (DCC). 48 hours later, ethanol or 1 nM R1881 was added to the cells followed by peptide treatment. The MTT assay (Sigma) was used as before to determine cell number. For apoptosis, 5000 cells were seeded in 96-well plates and treated with Vehicle (DMSO), Peptide A-8R (25 µM), Etoposide (50 µM) (Sigma) at different time points. The Caspase (3/7) activity was measured using Apo-ONE Homogeneous Caspase-3/7 assay kit (Promega). PARP cleavage was also used to measure apoptosis, and is described below.
# (A) Four peptides were designed targeting sGCα1, with each peptide containing eight arginines at the C-terminus for membrane translocation. (B) LNCaP cells were grown in 10% serum under different concentrations of the four peptides, as shown. Cell number was measured after 0–4 days of incubation. Data points represent averages of three independent experiments plus standard deviations. Asterisks indicate statistical significance (P<0.0002) of Peptide A activity, relative to Vehicle.
# Figure 2 Peptide A-8R interacts with sGCα1 in prostate cancer cells. (A) LNCaP cells were treated with 25 µM Biotin-labeled Peptide A-8R for 2 hrs and subjected to immunocytochemistry using anti-sGCα1 or anti-Biotin antibody to measure subcellular co-localization of endogenous sGCα1 and Peptide A-8R. DAPI was used to stain nuclei. (B) LNCaP cytosolic extracts were incubated with Peptide A-8R-Biotin and subjected to purification using streptavidin-agarose. This pull-down experiment was repeated with competing excess amount of unlabeled Peptide C-8R or Peptide A-8R. […] Co-purified Peptide A-8R-FITC was quantified by measuring fluorescence signal emission. […] Cell number was measured after 0–48 hrs of incubation. […]
# AKT = assay: Western blot of AKT in xenograft tumors; format: in vivo; conditions: mouse xenograft tumors; Fig. S4B
# Experimental: Western blotting was performed as described using primary antibodies against sGCα1 (Cayman Chemical), pan-Akt (Cell Signaling Technology), phospho-AKT (S473, T308) (Cell Signaling Technology), phospho-PDK1 (Cell Signaling Technology), phospho-GSK-3β (Cell Signaling Technology), PARP (Cell Signaling Technology), and β-Actin (Abcam).
# 2×10^6 C81 cells in 50 µL of growth medium was mixed with 50 µL Matrigel (BD Biosciences) and injected into both flanks of 4–6-week old SCID male mice. When tumor sizes reached 200 mm^3, 50 µL of Peptide A-8R (40 mg Peptide A-8R/Kg of animal) or Vehicle (DMSO) was directly injected into the tumors every other day. Injections were stopped after 5 times and tumors were measured every 3 days. Mice were euthanized after 3 weeks and tumors were excised. All procedures were approved by the University of Toledo Division of Lab Animal Recourses (DLAR). Protein extracts were prepared by boiling the tumor tissue in 3× SDS buffer, and evaluated by SDS-PAGE gel.
# Supplementary file pone.0064189.s004.tif: Figure S4 Peptide A-mediated down-regulation of AKT is not involved in its cytotoxicity to prostate cancer cells. […] Cell number was measured after 0–6 days of incubation. […]
# sGC = assay: cGMP levels in LNCaP cells (ELISA); format: cell-based; conditions: 1 nM R1881 absent or present, 20 µM peptide, cGMP EIA kit, Fig. S1B
# Experimental: (A) Whole-cell extracts from LNCaP cells treated with Vehicle, Peptide A-8R, or C-8R were subjected to IP using an anti-sGCα1 or anti-sGCβ1 antibody and then probed by Western blotting for sGCα1 (Upper) or sGCβ1 (Lower). Input represents amount of sGCα1 or sGCβ1 found in extracts. (B) LNCaP cells grown in the absence or presence of 1 nM R1881 were treated with Vehicle, 20 µM Peptide A-8R, 20 µM C-8R, or 8-Br-cGMP and monitored for cGMP levels using the cGMP E1A kit (Enzo Life Sciences). (C) LNCaP cells grown in the absence or presence of 8-Br-cGMP were treated with Vehicle, Peptide A-8R, or ODQ and monitored for cell density using the MTT assay. (D) LNCaP cells were treated with Vehicle or different concentrations of Peptide A-8R and C-PTIO and monitored for cell density. Bar graphs represent averages of three independent experiments plus standard deviations. Asterisks indicate statistical significance (P<0.04). (TIF) Click here for additional data file.
substance,measurement,setting,value
Ac-TFCKAFPFHIIRRRRRRRR [Peptide A-8R],effect on sGCα1-sGCβ1 co-IP (heterodimerization),sGCα1-sGCβ1,had no effect on either sGCα1 co-IP with sGCβ1 or sGCβ1 co-IP with sGCα1; also recorded: does not interfere with sGCα1-sGCβ1 dimerization
same,"cytotoxic activity / cell number, LNCaP","LNCaP cells; 10% serum, 0–4 days, Fig. 1B, P<0.0002 Peptide A vs Vehicle","strong, dose-dependent, cytotoxic activity, killing nearly all cells by day 4; also recorded: strongly cytotoxic to prostate cancer cells"
same,cytotoxic effect with or without 8-arginine sequence,"LNCaP cells; LNCaP, MTT, Fig. S2, P<0.005",strong cytotoxic effect
same,effect on AKT protein level in tumors,AKT,same negative effect on AKT protein levels; also recorded: significantly reduces AKT protein levels
same,cGMP levels,sGC,"unable to significantly repress cGMP levels, in either the absence or presence of androgen; also recorded: does not interfere with sGCα1-sGCβ1 dimerization and androgen-induced cGMP synthesis"
